Patent publication US8003096B2, “Means and methods for the recruitment and identification of stem cells” (Vlaams Interuniversitair Instituut voor Biotechnologie VZW, priority 2003, dated 2011)

Assays:
[1] = tested on: hematopoietic progenitor cells (HPCs); test: Circulating CFU-C assay on PB MNCs (mobilized HPCs); format: in vivo, mouse
Procedure: (§1) To study the role of the plasminogen proteinase system with its plasminogen activators tPA and uPA, and active plasmin in stem/progenitor cell mobilization, mice lacking plasminogen (Plg^−/−), tPA (tPA^−/−), uPA (uPA^−/−) and both activators (tPA^−/−uPA^−/−) were used.^(17, 18) Age- and sex-matched mice were kept in IVC cages. Mobilization was induced either via a single sublethal injection i.v. of the myeloablative agent 5-fluorouracil (5-FU, 200-250 mg/kg), or via administration s.c. of recombinant human G-CSF (Filgrastim, Amgen, 200 μg/kg/d) for five consecutive days.^(12) Peripheral blood (PB) samples were obtained by retro-orbital bleeding under light anesthesia. Full blood counts were determined on the Abbott Cell Dyn 1300 hemocytometer. The number of mobilized hematopoietic progenitor cells (HPCs) in the circulation was determined via methylcellulose-based CFU-C assays (MethoCult, Stem Cell Technologies), per 10^5 peripheral blood mononuclear cells (PB MNCs).^(12) The number of mobilized hematopoietic stem cells (HSCs) in the circulation was quantified via splenic colony-forming assays (CFU-S), and evaluated for long-term engraftment via transplantation into lethally irradiated syngeneic wild-type recipients (9.5 Gy total body irradiation). […]
Wild-type mice and mice lacking Plg, both tPA and uPA, tPA, uPA, uPAR, PAI-1, α2AP, MMP-2 (kind gift from S. Itohara), MMP-3 (kind gift from J. Mudgett), MMP-9, MMP-12 (kind gift from S. Shapiro), and TIMP-1 (obtained by courtesy of P. Soloway) were used, and housed in barrier cages (individually ventilated) (Heymans et al. (1999), Nat. Med. 5:1135-42). […] Peripheral blood was repetitively sampled by retro-orbital puncture under light anesthesia, and full blood counts (EDTA buffered) were determined on a hemocytometer (Abbott Cell Dyn 1300). Peripheral blood smears were stained using Giemsa-May-Grunwald and at least 200 cells were analyzed. […]

[2] = tested on: hematopoietic stem cells (HSCs); test: Splenic colony-forming assay CFU-S (mobilized HSCs); format: in vivo, mouse; conditions: WT mice
Procedure: as §1

circulating WBCs = test: Circulating WBC counts (full blood counts) during mobilization; format: in vivo, mouse; conditions: WT mice
Procedure: as §1

BM MNCs (HPCs) = test: Chemotaxis transwell assay, migrated HPCs scored as CFU-Cs; format: cell-based, mouse; conditions: factor in bottom well, overnight incubation; GM-CSF 100 ng/ml
Procedure: (§2) Mononuclear cells (MNCs) were prepared via Lympholiter-M (Cedarlane) and density centrifugation. For CFU-C assays, bone marrow cells (5×10^4), or PB MNCs (1×10^5 or 5×10^5) were plated in 35 mm dishes (Stem Cell Technologies) using methylcellulose supplemented with growth factors (MethoCult, Stem Cell Technologies), and colonies were blindly scored after seven and thirteen days, respectively, using an inverted microscope (Luttun et al. (2002), Nat. Med. 8:831-40). […] After five weeks of culture, cells were trypsinized, counted, plated in MethoCult, and CFU-Cs were scored after nine days. […] For CFU-S assays, lethal total body irradiation (9.0 to 9.5 Gy), and transplantation of mobilized PB MNCs (1 to 1.5×10^5) were performed in syngeneic recipients, survival was monitored or splenic colonies were blindly scored after twelve days using a dissection microscope. For bone marrow proliferation index, bone marrow cells from treated mice were plated in 96-well plates, CellTiter96 (Promega) was added, and repetitive colorimetric readings were performed at OD 490 nm. […] After overnight incubation, the migrated non-adherent cells in the bottom wells were collected, counted, plated in MethoCult and CFU-Cs were scored after twelve days.

HSCs = test: Transplantation of mobilized PB MNCs into lethally irradiated WT recipients, survival; format: in vivo, mouse; conditions: donors WT mice treated with G-CSF and agent
Procedure: as §1

HSCs in the BM = test: HSCs in the BM, LTC-IC assay on AFT024 stromal feeder layers; format: in vivo, mouse; conditions: WT mice, after two days of treatment
Procedure: as §2

sKitL = sKitL levels in BM plasma (ELISA); format: in vivo, mouse; conditions: WT mice, after G-CSF
Procedure: BM extracellular fluid (BM plasma) from mice was obtained as described previously (Petit et al. (2002), Nat. Immunol. 3:687-94). BM plasma from healthy volunteers was obtained by using the first 10 ml of collection via puncture in the iliac crest under local anesthesia, and immediate anti-coagulation with EDTA. Protein extraction on BM cells was performed as described (Heymans et al. (1999), Nat. Med. 5:1135-42). Murine sKitL and SDF1α protein levels were quantified using commercial available ELISA (R&D Systems, Abingdon, UK). Murine plasminogen, and murine and human suPAR were quantified by home-made ELISA (Heymans et al. (1999), Nat. Med. 5:1135-42; Sier et al. (2004), Thromb. Haemost. 91:403-11). Lyophilized pertussis toxin was obtained from List Laboratories. MMP-2, MMP-9, and MMP-12 activities were measured using gelatin-zymography, uPA and MMP-3 activities were measured using casein-zymography, as described previously (Heymans et al. (1999), Nat. Med. 5:1135-42). Samples from gene-deficient mice were used as negative controls. Plasmin activity of BM plasma or cells (pericellular activity) was measured using substrate colorimetry (S2403), as described previously (Heymans et al. (1999), Nat. Med. 5:1135-42). Fibrinolytic activity was measured using a modified fluorescent-based in vitro clot lysis assay (Heymans et al. (1999), Nat. Med. 5:1135-42). Western blotting was performed on non-reduced samples, which were neutralized with a cocktail of protease inhibitors (Complete Inhibitor, Roche). ECM components/fragments were detected with antibodies against mouse fibronectin and laminin (Sigma), and human D1D2D3 and D2D3 (Andolfo et al. (1999), Thromb. Haemost. 88:298-306), secondary HRP-labeled antibodies (DAKO), and ECL detection system (Amersham Pharmacia).

BM cells = test: BM proliferation index; format: in vivo, mouse; conditions: G-CSF-treated, N=8
Procedure: In contrast, HSC translocation and HPC expansion in the bone marrow was completely abolished in G-CSF-treated Plg^−/− mice (FIG. 1, Panels j and k). […] Thus, plasminogen is required for stem/progenitor cell expansion during mobilization.
Mononuclear cells (MNCs) were prepared via Lympholiter-M (Cedarlane) and density centrifugation. For CFU-C assays, bone marrow cells (5×10^4), or PB MNCs (1×10^5 or 5×10^5) were plated in 35 mm dishes (Stem Cell Technologies) using methylcellulose supplemented with growth factors (MethoCult, Stem Cell Technologies), and colonies were blindly scored after seven and thirteen days, respectively, using an inverted microscope (Luttun et al. (2002), Nat. Med. 8:831-40). […] After five weeks of culture, cells were trypsinized, counted, plated in MethoCult, and CFU-Cs were scored after nine days. […] For CFU-S assays, lethal total body irradiation (9.0 to 9.5 Gy), and transplantation of mobilized PB MNCs (1 to 1.5×10^5) were performed in syngeneic recipients, survival was monitored or splenic colonies were blindly scored after twelve days using a dissection microscope. For bone marrow proliferation index, bone marrow cells from treated mice were plated in 96-well plates, CellTiter96 (Promega) was added, and repetitive colorimetric readings were performed at OD 490 nm. […]

HPCs in the BM = test: CFU-Cs (HPCs) in the BM; format: in vivo, mouse; conditions: WT mice, after two days of treatment
Procedure: as §2

tPA = test: In vitro clot lysis with BM plasma samples; format: in vivo, mouse; conditions: N=4
Text: Compared to WT or tPA^−/− mice, uPA^−/− mice had increased mortality and delayed hematopoietic recovery (FIG. 2, Panels b and c). […] Moreover, uPA deficiency reduced the number of BM HSCs (Sca1^+cKit^+) and HPCs (Sca1^+) after 5-FU. Thus, uPA is the responsible plasminogen activator, generating plasmin during 5-FU-induced stem cell mobilization. After G-CSF treatment, the levels of active tPA, but not uPA, increased in the BM plasma, when measured by casein zymography. […] To assess whether the specific up-regulation of tPA in response to G-CSF was functionally relevant, we determined whether tPA^−/− mice were capable of mobilizing stem/progenitor cells in response to G-CSF. […]
BM extracellular fluid (BM plasma) from mice was obtained as described previously (Petit et al. (2002), Nat. Immunol. 3:687-94). […] Murine sKitL and SDF1α protein levels were quantified using commercial available ELISA (R&D Systems, Abingdon, UK). Murine plasminogen, and murine and human suPAR were quantified by home-made ELISA (Heymans et al. (1999), Nat. Med. 5:1135-42; Sier et al. (2004), Thromb. Haemost. 91:403-11). […] MMP-2, MMP-9, and MMP-12 activities were measured using gelatin-zymography, uPA and MMP-3 activities were measured using casein-zymography, as described previously (Heymans et al. (1999), Nat. Med. 5:1135-42). […]

[3] = G-CSF plus drug for five days, compared to control vehicle
[4] = G-CSF in combination with agent for five days, compared to G-CSF alone

## NC[C@H]1CC[C@H](C(=O)O)CC1 [exacyl, tranexamic acid]
[1]; WT mice, G-CSF plus drug for five days, compared to control vehicle
  reduction of G-CSF-induced mobilization of HPCs: 55%
[2]; [3]
  reduction of G-CSF-induced mobilization of HSCs: 49%
Circulating WBCs; [3]
  reduction of G-CSF-induced mobilization of WBCs: 37%

## GM-CSF: recombinant human GM-CSF (R&D systems), positive control in chemotaxis assay
BM MNCs (HPCs)
  HPCs in transwell: 1363±323

## pertussis toxin
[1]; uPAR−/− mice, single i.v. bolus of 500 ng, after five days
  mobilization of HPCs: efficiently mobilized

## tenecteplase
HSCs
  survival of lethally irradiated WT recipient mice after transplantation of mobilized cells: significantly increased
[1]; WT mice, G-CSF in combination with agent for five days, compared to G-CSF alone
  enhanced mobilization of HPCs: 65%
[2]; [4]
  enhanced mobilization of HSCs: 155%
Circulating WBCs; [4]
  enhanced mobilization of WBCs: 87%

B1: G-CSF: recombinant human G-CSF (Filgrastim, Amgen) (protein, chains of the INN, looked up)
chain: MTPLGPASSLPQSFLLKCLEQVRKIQGDGAALQEKLCATYKLCHPEELVLLGHSLGIPWAPLSSCPSQALQLAGCLSQLHSGLFLYQGLLQALEGISPELGPTLDTLQLDVADFATTIWQQMEELGMAPALQPTQGAMPAFASAFQRRAGGVLVASHLQSFLEVSYRVLRHLAQP
HSCs in the BM
  reduction of the number of HSCs in the bone marrow: 65%
sKitL
  sKitL levels in the BM plasma: not increased
BM cells; Plg−/− mice
  BM proliferation index (percent of proliferating BM cells in control mice): 73±8%
BM cells; WT mice
  BM proliferation index (percent of proliferating BM cells in control mice): 167±14%
HPCs in the BM
  increase of the number of HPCs in the bone marrow: 44%
tPA; BM plasma of G-CSF-treated WT mice
  in vitro clot lysis, percentage of a positive standard: 79±2%
tPA; BM plasma of G-CSF-treated tPA−/− mice
  in vitro clot lysis, percentage of a positive standard: 58±2%
